# Legend:
# [1] = biological target: T1, PaLhpI (aconitase X, AcnX Type I; cis-3-hydroxy-L-proline dehydratase) (Pseudomonas aeruginosa, UniProt Q9I485); experiment: substrate turnover by purified enzyme (HPLC/amino acid analyzer, 1H NMR, coupled assay); assay type: biochemical; parameters: gene lhpI; N-terminal (His)6-tagged recombinant protein
# [2] = biological target: T2, AtLhpI (AcnX Type I) (Agrobacterium fabrum, UniProt A9CH00); experiment: substrate turnover by purified enzyme, Lineweaver-Burk kinetics; assay type: biochemical
# T2 construct: gene lhpI; N-terminal (His)6-tagged recombinant protein
# T2 sequence (A9CH00 1-569): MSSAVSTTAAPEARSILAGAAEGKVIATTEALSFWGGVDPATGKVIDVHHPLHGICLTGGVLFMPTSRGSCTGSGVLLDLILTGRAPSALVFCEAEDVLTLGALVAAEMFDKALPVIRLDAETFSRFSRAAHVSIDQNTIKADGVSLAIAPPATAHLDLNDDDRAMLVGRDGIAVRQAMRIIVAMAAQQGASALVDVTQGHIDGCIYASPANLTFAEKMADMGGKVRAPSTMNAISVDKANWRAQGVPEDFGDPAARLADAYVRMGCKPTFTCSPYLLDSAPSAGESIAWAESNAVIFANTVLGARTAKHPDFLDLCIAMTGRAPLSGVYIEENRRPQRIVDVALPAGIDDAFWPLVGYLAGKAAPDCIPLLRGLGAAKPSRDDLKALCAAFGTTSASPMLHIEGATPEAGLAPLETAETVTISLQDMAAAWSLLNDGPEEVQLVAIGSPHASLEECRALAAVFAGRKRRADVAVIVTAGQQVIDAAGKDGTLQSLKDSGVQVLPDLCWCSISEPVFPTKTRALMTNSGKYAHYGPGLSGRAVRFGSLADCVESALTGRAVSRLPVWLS
# [3] = biological target: T3, TrLhpI (AcnX Type I) (Trichoderma reesei, UniProt G0REW7); experiment: substrate turnover by purified enzyme (amino acid analyzer, Lineweaver-Burk kinetics); assay type: biochemical
# T3 construct: gene lhpI; N-terminal (His)6-tagged recombinant protein
# T3 sequence (G0REW7 1-596): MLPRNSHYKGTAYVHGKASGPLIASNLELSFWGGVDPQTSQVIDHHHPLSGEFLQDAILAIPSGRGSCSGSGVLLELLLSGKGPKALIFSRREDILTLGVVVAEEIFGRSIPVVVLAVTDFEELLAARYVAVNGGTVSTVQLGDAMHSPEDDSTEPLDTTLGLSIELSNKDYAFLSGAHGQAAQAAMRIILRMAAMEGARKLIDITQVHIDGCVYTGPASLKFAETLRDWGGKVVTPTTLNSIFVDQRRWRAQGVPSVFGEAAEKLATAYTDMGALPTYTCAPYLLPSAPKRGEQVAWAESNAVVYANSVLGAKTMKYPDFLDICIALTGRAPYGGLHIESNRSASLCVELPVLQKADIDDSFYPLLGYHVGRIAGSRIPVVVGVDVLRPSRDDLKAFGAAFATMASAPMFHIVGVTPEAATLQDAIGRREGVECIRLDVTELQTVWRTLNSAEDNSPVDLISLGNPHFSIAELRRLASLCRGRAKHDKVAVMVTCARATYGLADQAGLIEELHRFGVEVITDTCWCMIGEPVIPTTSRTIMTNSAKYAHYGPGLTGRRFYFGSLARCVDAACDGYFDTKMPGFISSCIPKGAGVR
# [4] = biological target: T1, PaLhpI (aconitase X, AcnX Type I; cis-3-hydroxy-L-proline dehydratase); parameters: gene lhpI
# [5] = biological target: T1, PaLhpI (aconitase X, AcnX Type I; cis-3-hydroxy-L-proline dehydratase); experiment: substrate turnover by purified enzyme (HPLC), coupled with reductase; assay type: biochemical; parameters: gene lhpI; N-terminal (His)6-tagged recombinant protein
# [6] = biological target: T4, PaLhpL (Pseudomonas aeruginosa, UniProt Q9I489); experiment: bifunctional dehydratase and 2-epimerase activity (details in supplement, Fig. S6); assay type: biochemical
# T4 construct: gene lhpL
# T4 sequence (Q9I489 1-344): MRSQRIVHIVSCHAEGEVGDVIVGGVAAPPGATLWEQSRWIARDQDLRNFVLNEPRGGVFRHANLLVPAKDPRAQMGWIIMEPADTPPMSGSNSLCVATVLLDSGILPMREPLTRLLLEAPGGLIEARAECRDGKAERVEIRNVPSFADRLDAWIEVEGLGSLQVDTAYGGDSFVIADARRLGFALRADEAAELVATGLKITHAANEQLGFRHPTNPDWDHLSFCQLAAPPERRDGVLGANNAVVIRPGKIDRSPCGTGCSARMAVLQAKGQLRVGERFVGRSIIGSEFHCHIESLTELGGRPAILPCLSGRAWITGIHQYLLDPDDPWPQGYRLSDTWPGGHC
# T1 sequence (Q9I485 whole entry): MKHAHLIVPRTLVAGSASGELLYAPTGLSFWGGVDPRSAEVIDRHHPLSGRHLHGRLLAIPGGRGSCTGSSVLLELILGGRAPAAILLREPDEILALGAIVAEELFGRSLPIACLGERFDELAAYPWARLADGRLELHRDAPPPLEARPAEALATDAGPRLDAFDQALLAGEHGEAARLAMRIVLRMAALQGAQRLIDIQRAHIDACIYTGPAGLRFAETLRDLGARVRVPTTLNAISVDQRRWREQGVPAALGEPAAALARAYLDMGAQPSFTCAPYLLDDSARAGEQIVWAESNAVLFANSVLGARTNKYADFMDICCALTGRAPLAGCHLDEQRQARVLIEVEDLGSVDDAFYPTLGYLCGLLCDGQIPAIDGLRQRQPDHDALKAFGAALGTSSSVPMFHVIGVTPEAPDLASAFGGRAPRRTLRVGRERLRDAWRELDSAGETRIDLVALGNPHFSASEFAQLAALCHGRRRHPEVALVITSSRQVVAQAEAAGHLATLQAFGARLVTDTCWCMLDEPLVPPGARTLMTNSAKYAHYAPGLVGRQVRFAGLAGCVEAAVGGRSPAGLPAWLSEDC
smiles,measurement,setting,value
O=C(O)[C@H]1NCC[C@H]1O [cis-3-hydroxy-L-proline],"substrate turnover by purified enzyme (HPLC/amino acid analyzer, 1H NMR, coupled)",[1],39.5 µmol/min/mg
same,"substrate turnover by purified enzyme, Lineweaver-Burk kinetics",[2],"among eight proline derivatives (Fig. S1), only cis-3-hydroxy-L-proline was consumed in a time-dependent manner by both proteins"
same,"substrate turnover by purified enzyme (amino acid analyzer, Lineweaver-Burk kine)",[3],3.75 µmol/min/mg
O=C(O)c1ccc[nH]1 [pyrrole-2-carboxylate],IC50,[4],~ 440-fold that of Cd^2+ (2.05 × 10^−3 mM)
"O=C(O)[C@H]1NC[C@@H](O)[C@H]1O [2,3-cis-3,4-cis-3,4-dihydroxy-L-proline]","substrate turnover by purified enzyme (HPLC), coupled with reductase",[5],0.130 µmol/min/mg
O=C(O)[C@H]1NCC[C@@H]1O [trans-3-hydroxy-L-proline],"bifunctional dehydratase and 2-epimerase activity (details in supplement, Fig. S)",[6],PaLhpL gene (PA1255; Fig. 1d) in the L-hydroxyproline gene cluster encodes a bifunctional dehydratase and 2-epimerase toward trans-3-hydroxy-L-proline
